Earlier results as cited in PubChem BioAssay AID1259409 (Chemical Carcinogenesis Research Information System (CCRIS), 2018).

Test system: rodent chemically induced tumor inhibition, incidence and multiplicity
Experiment: CCRIS tumor inhibitor studies

C[C@]12CC[C@H](O)CC1=CC[C@@H]1[C@@H]2CC[C@]2(C)C(=O)CC[C@@H]12
tumour outcome (control, treated, inhibition, significance) (Carcinogen: N-METHYL-N-NITROSOUREA, 684-93-5, Dose [Inhibitor]: 0, 5 PPM IN DIET FOR DURATION OF STUDY BEGINNING 1 WK PRIOR TO CARCINOGEN DOSE (STUDY DURATION: 109 D), Route [Inhibitor]: ORAL, Species: RAT, Strain/Sex: SPRAGUE-DAWLEY/FEMALE, Target Tissue: Type of Lesion: MAMMARY GLAND: TUMOR, Dose [Carcinogen]: 50 MG/KG BW IN ACIDIFIED SALINE (PH 5.0) ONCE, Promoter: NONE USED): 100%, 89%, 11%, not calculated | tumour outcome (control, treated, inhibition, significance) (Carcinogen: N-METHYL-N-NITROSOUREA, 684-93-5, Dose [Inhibitor]: 0, 24 PPM IN DIET FOR DURATION OF STUDY BEGINNING 1 WK PRIOR TO CARCINOGEN DOSE (STUDY DURATION: 109 D), Route [Inhibitor]: ORAL, Species: RAT, Strain/Sex: SPRAGUE-DAWLEY/FEMALE, Target Tissue: Type of Lesion: MAMMARY GLAND: TUMOR, Dose [Carcinogen]: 50 MG/KG BW IN ACIDIFIED SALINE (PH 5.0) ONCE, Promoter: NONE USED): 100%, 80%, 20%, not calculated | tumour outcome (control, treated, inhibition, significance) (Carcinogen: N-METHYL-N-NITROSOUREA, 684-93-5, Dose [Inhibitor]: 0, 120 PPM IN DIET FOR DURATION OF STUDY BEGINNING 1 WK PRIOR TO CARCINOGEN DOSE (STUDY DURATION: 109 D), Route [Inhibitor]: ORAL, Species: RAT, Strain/Sex: SPRAGUE-DAWLEY/FEMALE, Target Tissue: Type of Lesion: MAMMARY GLAND: TUMOR, Dose [Carcinogen]: 50 MG/KG BW IN ACIDIFIED SALINE (PH 5.0) ONCE, Promoter: NONE USED): 100%, 80%, 20%, not calculated | tumour outcome (control, treated, inhibition, significance) (Carcinogen: N-METHYL-N-NITROSOUREA, 684-93-5, Dose [Inhibitor]: 0, 400 MG/KG DIET FOR DURATION OF STUDY BEGINNING 1 WK PRIOR TO CARCINOGEN DOSE (STUDY DURATION: 187 D), Route [Inhibitor]: ORAL, Species: RAT, Strain/Sex: SPRAGUE-DAWLEY/FEMALE, Target Tissue: Type of Lesion: MAMMARY GLAND: TUMOR, Dose [Carcinogen]: 35 MG/KG BW ONCE, Promoter: NONE USED): 85%, 0%, 100%, p<0.01 | tumour outcome (control, treated, inhibition, significance) (Carcinogen: N-METHYL-N-NITROSOUREA, 684-93-5, Dose [Inhibitor]: 0, 600 PPM IN DIET FOR DURATION OF STUDY BEGINNING 1 WK PRIOR TO CARCINOGEN DOSE (STUDY DURATION: 109 D), Route [Inhibitor]: ORAL, Species: RAT, Strain/Sex: SPRAGUE-DAWLEY/FEMALE, Target Tissue: Type of Lesion: MAMMARY GLAND: TUMOR, Dose [Carcinogen]: 50 MG/KG BW IN ACIDIFIED SALINE (PH 5.0) ONCE, Promoter: NONE USED): 100%, 40%, 60%, not calculated | tumour outcome (control, treated, inhibition, significance) (Carcinogen: N-METHYL-N-NITROSOUREA, 684-93-5, Dose [Inhibitor]: 0, 800 MG/KG DIET FOR DURATION OF STUDY BEGINNING 1 WK PRIOR TO CARCINOGEN DOSE (STUDY DURATION: 187 D), Route [Inhibitor]: ORAL, Species: RAT, Strain/Sex: SPRAGUE-DAWLEY/FEMALE, Target Tissue: Type of Lesion: MAMMARY GLAND: TUMOR, Dose [Carcinogen]: 35 MG/KG BW ONCE, Promoter: NONE USED): 70%, 0%, 100%, p<0.01 | tumour outcome (control, treated, inhibition, significance) (Carcinogen: N-NITROSOMORPHOLINE, 59-89-2, Dose [Inhibitor]: 0.25% IN DIET (STUDY DURATION: 51 WK), Route [Inhibitor]: ORAL, Species: RAT, Strain/Sex: SPRAGUE-DAWLEY/MALE, Target Tissue: Type of Lesion: LIVER: HEMANGIOSARCOMA, Dose [Carcinogen]: 120 MG/L IN DRINKING WATER FOR FIRST 7 WK OF STUDY, Promoter: NONE USED): 8/35 (23%), 1/35 (3%), 88%, p<0.05 | tumour outcome (control, treated, inhibition, significance) (Carcinogen: N-NITROSOMORPHOLINE, 59-89-2, Dose [Inhibitor]: 0.25% IN DIET (STUDY DURATION: 51 WK), Route [Inhibitor]: ORAL, Species: RAT, Strain/Sex: SPRAGUE-DAWLEY/MALE, Target Tissue: Type of Lesion: LIVER: HEPATOCELLULAR ADENOMA, MIXED CELL, Dose [Carcinogen]: 120 MG/L IN DRINKING WATER FOR FIRST 7 WK OF STUDY, Promoter: NONE USED): 32/35 (91%), 28/35 (80%), 14%, not calculated | tumour outcome (control, treated, inhibition, significance) (Carcinogen: N-NITROSOMORPHOLINE, 59-89-2, Dose [Inhibitor]: 0.25% IN DIET (STUDY DURATION: 51 WK), Route [Inhibitor]: ORAL, Species: RAT, Strain/Sex: SPRAGUE-DAWLEY/MALE, Target Tissue: Type of Lesion: LIVER: HEPATOCELLULAR CARCINOMA, Dose [Carcinogen]: 120 MG/L IN DRINKING WATER FOR FIRST 7 WK OF STUDY, Promoter: NONE USED): 33%, 20%, 39%, not calculated | tumour outcome (control, treated, inhibition, significance) (Carcinogen: N-methyl-N-nitrosourea, 684-93-5, Dose [Inhibitor]: 125 mg/kg in diet for 6 wks starting 6 wks after administration of carcinogen, Route [Inhibitor]: Oral, Species: Rat, Strain/Sex: Sprague Dawley/Female, Target Tissue: Type of Lesion: Mammary gland: tumors, Dose [Carcinogen]: 50 mg/kg injected once in 50 d old mice, tumors allowed to develop for 6 wks before inhibitor administration (Test mater, Promoter: None used): 93.3%, 96.7%, -0.03%, not significant | tumour outcome (control, treated, inhibition, significance) (Carcinogen: N-methyl-N-nitrosourea, 684-93-5, Dose [Inhibitor]: 1000 mg/kg in diet for 6 wks starting 6 wks after administration of carcinogen, Route [Inhibitor]: Oral, Species: Rat, Strain/Sex: Sprague Dawley/Female, Target Tissue: Type of Lesion: Mammary gland: tumors, Dose [Carcinogen]: 50 mg/kg injected once in 50 d old mice, tumors allowed to develop for 6 wks before inhibitor administration (Test mater, Promoter: None used): 93.3%, 76.7%, 17.8%, not significant | tumour outcome (control, treated, inhibition, significance) (Carcinogen: NONE USED, Dose [Inhibitor]: 0, 0.45% IN DIET FOR DURATION OF STUDY (STUDY DURATION: 84 WK), Route [Inhibitor]: ORAL, Species: RAT, Strain/Sex: F344/MALE, Target Tissue: Type of Lesion: TESTES: LEYDIG CELL TUMOR, Promoter: NONE USED): 8/8 (100%), 0/13 (0%), 100%, p<0.005 | tumour outcome (control, treated, inhibition, significance) (Carcinogen: NONE USED, Dose [Inhibitor]: 450 MG/KG IN SESAME OIL 3/WK BEGINNING AT 5-6 WK OF AGE AND CONTINUING FOR DURATION OF STUDY (STUDY DURATION: 18 MO), Route [Inhibitor]: INTRAGASTRIC, Species: MOUSE, Strain/Sex: C3H-A/A/FEMALE, Target Tissue: Type of Lesion: MAMMARY GLAND: TUMOR, Promoter: NONE USED): 21/78 (27%), 9/77 (12%), 56%, p<0.05 | tumour outcome (control, treated, inhibition, significance) (Carcinogen: NONE USED, Dose [Inhibitor]: 450 MG/KG IN SESAME OIL 3/WK BEGINNING AT 5-6 WK OF AGE AND CONTINUING FOR DURATION OF STUDY (STUDY DURATION: 18 MO), Route [Inhibitor]: INTRAGASTRIC, Species: MOUSE, Strain/Sex: C3H-AVY/A/FEMALE, Target Tissue: Type of Lesion: MAMMARY GLAND: TUMOR, Promoter: NONE USED): 19/27 (70%), 5/23 (22%), 68%, p<0.005 | tumour outcome (control, treated, inhibition, significance) (Carcinogen: NONE USED, Dose [Inhibitor]: 450 MG/KG IN SESAME OIL 3/WK FOR DURATION OF STUDY (STUDY DURATION: 9 MO), Route [Inhibitor]: INTRAGASTRIC, Species: MOUSE, Strain/Sex: C3H-AVY/A/FEMALE, Target Tissue: Type of Lesion: MAMMARY GLAND: TUMOR, Promoter: NONE USED): 14/26 (54%), 0/24 (0%), 100%, not calculated
